Test results as given in patent US6589980B2, “Substituted 10,11-benzo[b]fluoren-10-ones as estrogenic agents” (Wyeth, priority 2001, dated 2003).
pIC50: −log10 of the molar value.

Experiments:
human ERβ = target: T1, human ERβ (Homo sapiens, UniProt Q92731); assay: Competition with [3H]-17β-estradiol for binding to ERβ ligand binding domain; conditions: crude E. coli lysate expressing ER ligand binding domains (D,E,&F); 2 nM [3H]-17β-estradiol; 5-15 hours at room temperature
T1 construct: made in house; host or cells: E. coli (crude lysate)
T1 sequence (Q92731 264-498 limits assumed): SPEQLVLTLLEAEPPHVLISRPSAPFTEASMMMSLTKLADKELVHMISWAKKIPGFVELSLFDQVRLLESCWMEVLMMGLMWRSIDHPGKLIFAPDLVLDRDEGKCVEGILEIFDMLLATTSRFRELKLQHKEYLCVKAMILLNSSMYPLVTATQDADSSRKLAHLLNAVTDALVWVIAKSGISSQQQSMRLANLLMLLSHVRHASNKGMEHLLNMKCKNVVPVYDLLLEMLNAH
Procedure: (§1) This test procedure provides the methodology for one to determine whether a particular compound binds to the estrogen receptor (and is therefore “estrogenic”) and whether there is selectivity for ERα or ERβ. […] The procedure used is briefly described below. A crude lysate of E. coli expressing the estrogen receptor ligand binding domains (D,E, & F) of human ERα or ERβ was prepared. Both receptors and compounds were diluted in 1×Dulbecco's PBS (DPBS) supplemented with 1 mM EDTA. […] After between 5 and 15 hours at room temperature, the plates were washed with DPBS/1 mM EDTA and bound radioactivity determined by liquid scintillation counting.

human ERα = target: T2, human ERα (Homo sapiens, UniProt P03372); assay: Competition with [3H]-17β-estradiol for binding to ERα ligand binding domain; conditions: crude E. coli lysate expressing ER ligand binding domains (D,E,&F); 2 nM [3H]-17β-estradiol; 5-15 hours at room temperature
T2 construct: made in house; host or cells: E. coli (crude lysate)
T2 sequence (P03372 311-547 limits assumed): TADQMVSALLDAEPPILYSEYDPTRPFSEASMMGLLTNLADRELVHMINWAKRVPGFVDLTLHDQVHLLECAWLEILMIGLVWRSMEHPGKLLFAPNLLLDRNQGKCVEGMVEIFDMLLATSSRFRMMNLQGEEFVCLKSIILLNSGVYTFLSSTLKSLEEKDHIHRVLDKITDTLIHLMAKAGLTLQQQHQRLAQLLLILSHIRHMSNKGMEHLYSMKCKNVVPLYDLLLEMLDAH
Procedure: as §1

pIC50 (human ERβ) | melting point | pIC50 (human ERα) | Compound
8.70 |  |  | O=c1c2c(O)cc(O)cc2oc2oc3cc(O)ccc3c12 [2,6,8-Trihydroxy-10,11-dioxa-benzo[b]fluoren-5-one]
7.55 | > 300 °C | 6.32 | O=c1c2ccc(O)cc2oc2oc3cc(O)ccc3c12 [2,8-Dihydroxy-10,11-dioxa-benzo[b]fluoren-5-one]
 |  | 5.56 | COc1cc(O)c2c(=O)c3c(oc2c1)oc1cc(O)ccc13 [2.6-Dihvdroxy-8-methoxy-10,11-dioxa-benzo[b]fluoren-5-one]
